In patent US9151761B2, “Predictive biomarker of survival in the treatment of renal cell carcinoma” (Amgen Inc., priority 2011, dated 2015):

Test system: advanced clear cell carcinoma of the kidney
Assay: Phase 2 study of AMG 386 plus sorafenib: progression free survival by baseline serum PLGF above vs below the median (28 pg/mL)
Format: in vivo, human
Details: sorafenib only, 400 mg PO BID (placebo AMG 386), FIG. 4
Procedure: FIGS. 1-4 are Kaplan-Meier plots showing progression free survival differences between subjects with patient PLGF concentrations above and below the median PLGF concentration parameter (28 pg/mL). 123 patients total with 43 patients administered AMG 386 at 10 mg/kg, 39 patients at 3 mg/kg, and 41 patients at 0 mg/kg. All patients were also dosed with 400 mg sorafenib orally, twice a day. […]
The number of patients to be enrolled was approximately 150. […] The primary outcome measured was PFS while the secondary outcome included objective response rate, duration of response, and change in continuous measures of tumor burden.
Renal cancer patient's circulating levels of protein placental growth factor (PLGF) was analyzed along with a number of other analytes to determine if it was predictive of how well they will respond after treatment with AMG 386 and sorafenib. […] The baseline patient PLGF concentration was analyzed to determine if it was informative of how well the patient would respond to the treatment regimens.
The patients PLGF concentrations were determined and tested for statistical association with progression free survival (PFS) time. […] Predictive significance was determined with a Cox proportional hazards model of PFS with the factors PLGF, cohort, and the interaction between PLGF and cohort. […]

CNC(=O)c1cc(Oc2ccc(NC(=O)Nc3ccc(Cl)c(C(F)(F)F)c3)cc2)ccn1 [sorafenib]
Cox proportional hazard ratio (HR) of progression free survival, patient PLGF above vs below median (41 patients (23 above, 18 below)): 0.83
difference in median survival, patient PLGF above vs below median (41 patients): 1 days
